Holding throughout (format): cell-based
Assay [1] deals with Klebsiella oxytoca LXA-1. Kind of assay: MIC, characterised β-lactamase producing strain (Example 5, Tables 5-7). The following applies: Klebsiella oxytoca LXA-1, functional group 2b; LK-157 in combination constant 4 μg/mL. As for the experimental part:
(§1) The MIC experiments were performed in duplicate in 96-well microtiter plates using CAMHB. Serial twofold dilutions of each antibiotic either alone or in combination with constant concentration ratio of a β-lactamase inhibitor (2:1) were prepared in CAMHB. The bacterial suspension with final inoculum 10^5 CFU/mL was transferred to the test medium containing the antibacterial substances. In each well of a 96-well microtiter plate was combined 50 μL of bacterial inoculum, 50 μL of antibiotic dilutions (or media for determination of the MIC of the antibiotic in the absence of test compound). Each plate included 4 wells with no bacterial inoculum (negative control) and 4 wells with no test compound and no antibiotic (positive control). The plates were incubated at 35° C. for 24 h. Purity check and colony counts on each inoculum suspension was performed to ensure that the final inoculum concentration routinely obtained closely approximates 5×10^5 CFU/mL. In addition the assay is routinely monitored by testing standard antibiotics and ensuring that MIC values are within the recommended ranges for the respective strains.
(§2) This test permits comparisons to be made between bacterial growth in the presence of antibiotic alone and bacterial growth in the presence of both an antibiotic and a novel (test) compound.

For assay [2], the system named is Escherichia coli TEM-9. The description is as above. As for the experimental part: as §1, with “Serial twofold dilutions of each antibiotic either alone or in combination with constant concentration ratio of a β-lactamase inhibitor (2:1) were prepared in CAMHB.” left out
as §2

The subject of assay [3] is Klebsiella pneumoniae TEM-1 hyperproduced. As for the experimental part: as §1, with “Serial twofold dilutions of each antibiotic either alone or in combination with constant concentration ratio of a β-lactamase inhibitor (2:1) were prepared in CAMHB.” left out
as §2

Assay [4] relates to C. freundii SHV-5. Kind of assay: Synergy MIC, inhibitor at 4 μg/mL (Example 4). The settings on record: SHV-5, class A, inhibitor constant 4 μg/mL.
In assay [5] the test system is Escherichia coli OXA-7. Nature of the assay: MIC, characterised β-lactamase producing strain (Example 5, Tables 5-7). As for the experimental part: as §1, with “Serial twofold dilutions of each antibiotic either alone or in combination with constant concentration ratio of a β-lactamase inhibitor (2:1) were prepared in CAMHB.” left out
as §2

Assay [6] has as its system Klebsiella pneumoniae TEM-10. The assay is described as above. As for the experimental part: as §1, with “Serial twofold dilutions of each antibiotic either alone or in combination with constant concentration ratio of a β-lactamase inhibitor (2:1) were prepared in CAMHB.” left out
as §2

The subject of assay [7] is Escherichia coli TEM-36. The description is as above. As to the method: as §1, with “Serial twofold dilutions of each antibiotic either alone or in combination with constant concentration ratio of a β-lactamase inhibitor (2:1) were prepared in CAMHB.” left out
as §2

Assay [8] has as its system Klebsiella pneumoniae LAT-2. The assay is described as above. As for the experimental part: as §1, with “Serial twofold dilutions of each antibiotic either alone or in combination with constant concentration ratio of a β-lactamase inhibitor (2:1) were prepared in CAMHB.” left out
as §2

For assay [9], the system named is Escherichia coli FOX-2. The assay is described as above. As for the experimental part:
as §1, with “Serial twofold dilutions of each antibiotic either alone or in combination with constant concentration ratio of a β-lactamase inhibitor (2:1) were prepared in CAMHB.” left out
as §2

The subject of assay [10] is Escherichia coli TEM-8. The assay is described as above. As for the experimental part:
as §1, with “Serial twofold dilutions of each antibiotic either alone or in combination with constant concentration ratio of a β-lactamase inhibitor (2:1) were prepared in CAMHB.” left out
as §2

The subject of assay [11] is Escherichia coli SHV-1. Described as above. As for the experimental part: as §1, with “Serial twofold dilutions of each antibiotic either alone or in combination with constant concentration ratio of a β-lactamase inhibitor (2:1) were prepared in CAMHB.” left out
as §2

The subject of assay [12] is Escherichia coli FOX-1. The assay is described as above. As to the method:
as §1, with “Serial twofold dilutions of each antibiotic either alone or in combination with constant concentration ratio of a β-lactamase inhibitor (2:1) were prepared in CAMHB.” left out
as §2

Assay [13] concerns Escherichia coli SHV-4. The assay is described as above. As to the method:
as §1, with “Serial twofold dilutions of each antibiotic either alone or in combination with constant concentration ratio of a β-lactamase inhibitor (2:1) were prepared in CAMHB.” left out
as §2

In assay [14] the test system is Escherichia coli CMY-7. The description is as above. As to the method: as §1, with “Serial twofold dilutions of each antibiotic either alone or in combination with constant concentration ratio of a β-lactamase inhibitor (2:1) were prepared in CAMHB.” left out
as §2

In assay [15] the test system is Pseudomonas aeruginosa PSE-3. Described as above. As to the method:
as §1, with “Serial twofold dilutions of each antibiotic either alone or in combination with constant concentration ratio of a β-lactamase inhibitor (2:1) were prepared in CAMHB.” left out
as §2

For assay [16], the system named is Escherichia coli TEM-21. The assay is described as above. As to the method:
as §1, with “Serial twofold dilutions of each antibiotic either alone or in combination with constant concentration ratio of a β-lactamase inhibitor (2:1) were prepared in CAMHB.” left out
as §2

In assay [17] the test system is Pseudomonas aeruginosa OXA-6. Described as above. As to the method: as §1, with “Serial twofold dilutions of each antibiotic either alone or in combination with constant concentration ratio of a β-lactamase inhibitor (2:1) were prepared in CAMHB.” left out
as §2

Assay [18] deals with Klebsiella pneumoniae CMY-2. The description is as above. As to the method: as §1, with “Serial twofold dilutions of each antibiotic either alone or in combination with constant concentration ratio of a β-lactamase inhibitor (2:1) were prepared in CAMHB.” left out
as §2

For assay [19], the system named is Escherichia coli CMY-2. The description is as above. As to the method: as §1, with “Serial twofold dilutions of each antibiotic either alone or in combination with constant concentration ratio of a β-lactamase inhibitor (2:1) were prepared in CAMHB.” left out
as §2

For assay [20], the system named is Escherichia coli CTX-M9. Kind of assay: MIC, characterised β-lactamase producing strain (Example 5, Table 7). The settings on record: CTXM9, combination at constant concentration ratio (2:1). The source says:
(§3) Their MICs were compared with that of cefotaxime, cefotaxime/tazobactam, ceftazidime, ceftazidime/tazobactam, cefepime, cefepime/tazobactam, and piperacillin/tazobactam.

Assay [21] has as its system Escherichia coli CTX-M15. The assay is described as above. The following applies: CTXM15, combination at constant concentration ratio (2:1).
Source text: as §3

In assay [22] the test system is Klebsiella pneumoniae CTX-M14. The description is as above. The following applies: CTXM14, combination at constant concentration ratio (2:1).
Source text: as §3

The test system of assay [23] is Klebsiella pneumoniae CTX-M1. The description is as above. The settings on record: CTXM1, combination at constant concentration ratio (2:1).
Source text: as §3

Assay [24] deals with Klebsiella pneumoniae CTX-M15. The description is as above. The settings on record: CTXM15, combination at constant concentration ratio (2:1).
Source text: as §3

In assay [25] the test system is Enterobacter cloacae CTX-M9. The assay is described as above. The settings on record: CTXM9, combination at constant concentration ratio (2:1).
Source text: as §3

Setting [26] is: Table 6, LK-157 at constant 4 μg/mL in combination.
Where [27] appears, read: Table 7, combination at constant concentration ratio (2:1).

Read-outs that look alike come from different tables or passages of the source.

For `CO/N=C(\C(=O)N[C@@H]1C(=O)N2C(C(=O)[O-])=C(C[N+]3(C)CCCC3)CS[C@H]12)c1csc(N)n1` [cefepime], the minimum inhibitory concentration (MIC) in assay [1] was 0.125 µg/mL; in [2] (Escherichia coli TEM-9, functional group 2be, LK-157 in combination constant 4 μg/mL) it was 128 µg/mL.
Take `CO/N=C(\C(=O)N[C@@H]1C(=O)N2C(C(=O)O)=C(COC(C)=O)CS[C@H]12)c1csc(N)n1` [cefotaxime]: the MIC was determined as 0.063 µg/mL in assay [3] (setting [26]); 25.6 µg/mL in [4]; 0.25 µg/mL in assay [5] (setting [26]); 0.5 µg/mL in [6] (setting [26]); 0.25 µg/mL in assay [7] (setting [26]); 16 µg/mL in assay [8] (setting [26]). Also, the minimal inhibitory concentration (MIC) in assay [9] (setting [26]) stood at 64 µg/mL; in assay [10] (setting [26]) it was 4 µg/mL; in [11] (setting [26]), 0.063 µg/mL; in assay [12] (setting [26]), 2 µg/mL; in [13] (setting [26]), 16 µg/mL; in [14] (setting [26]) it was 32 µg/mL. For the same molecule, the MIC in assay [15] (setting [26]) amounted to 16 µg/mL; in assay [16] (setting [26]), 32 µg/mL; in [17] (setting [26]) it was 16 µg/mL; in assay [18] (setting [26]), 16 µg/mL; in assay [19] (setting [26]), 32 µg/mL.
Consider `CC(C)(O/N=C(\C(=O)N[C@@H]1C(=O)N2C(C(=O)[O-])=C(C[n+]3ccccc3)CS[C@H]12)c1csc(N)n1)C(=O)O` [ceftazidime], for which the minimal inhibitory concentration (MIC) was found to be 0.25 µg/mL in assay [3] (setting [27]); 2 µg/mL in [20]; 32 µg/mL in assay [21]; 8 µg/mL in assay [22]; 16 µg/mL in assay [23]; 32 µg/mL in assay [24]. Moreover, the MIC in [25] was 0.5 µg/mL; in [5] (setting [27]), 0.5 µg/mL; in assay [6] (setting [27]) it was “≧128 μg/mL”; in [7] (setting [27]) it was 0.5 µg/mL; in [8] (setting [27]), “≧128 μg/mL”; in [9] (setting [27]), “≧128 μg/mL”. Besides, the MIC result in [10] (setting [27]) was “≧128 μg/mL”; in [11] (setting [27]) it was 0.25 µg/mL; in assay [2] (Table 7, Escherichia coli TEM-9, combination at constant concentration ratio (2:1)) it was “≧128 μg/mL”; in assay [12] (setting [27]), 8 µg/mL; in [13] (setting [27]), “≧128 μg/mL”; in assay [14] (setting [27]), “≧128 μg/mL”. Also, the minimum inhibitory concentration (MIC) was 4 µg/mL in assay [15] (setting [27]); 16 µg/mL in [16] (setting [27]); 2 µg/mL in assay [17] (setting [27]); 64 µg/mL in assay [18] (setting [27]); “≧128 μg/mL” in assay [19] (setting [27]).
